Experimental data as given in publication PMC7449217, “The FDA-Approved Drug Nelfinavir Inhibits Lytic Cell-Free but Not Cell-Associated Nonlytic Transmission of Human Adenovirus” (Antimicrobial Agents and Chemotherapy, 2020).
Structures can show the parent of a compound that is named as a salt.

Legend:
Assay in all cases: fluorescence-based plaque-forming assay, A549 cells
Type in all cases: cell-based, human adenovirus
[1] = test system: HAdV-D30
Experimental: (§1) Per 96-well plate, 15,000 A549 cells, 10,000 HeLa cells, 30,000 HBECs, 30,000 HCE cells, or 30,000 CMT-93 cells were seeded in 100 μl of the respective supplemented medium and allowed to settle for 1 h at room temperature (RT) prior to cell culture incubation at 37°C with 5% CO2 and 95% humidity. The following day, the medium was replaced with 50 μl of the respective virus stock dilution giving rise to 5 to 50 plaques per 96-well plate. Fifty microliters of nelfinavir to obtain a 0.1 to 50 μM final concentration or the DMSO solvent control was also added, both in supplemented medium. For each experiment, a noninfected, treated control was performed. For uphill plaque assays, the medium volume was increased to 150 μl with identical virus and drug concentrations. For wash-in/washout experiments, the virus was incubated on cells in supplemented medium for 1 h at 37°C, cells were washed with PBS, and a 100-μl drug dilution in supplemented medium was added. All experiments were performed in four technical replicates or as indicated. Cells were incubated under standard cell culture conditions. At the indicated times postinfection, the cells were fixed, and the nuclei were stained for 1 h at RT by the addition of 33 μl 16% (wt/vol) paraformaldehyde (PFA) and 4 μg/ml Hoechst 33342 (Sigma-Aldrich, St. Louis, MO, USA) in PBS. Cells were washed three times with PBS and stored in PBS supplemented with 0.02% N3 for infections with viruses harboring a GFP transgene. For wild-type (wt) viruses, cells were quenched in PBS supplemented with 50 mM NH4Cl, permeabilized using 0.2% (vol/vol) Triton X-100 in PBS, and blocked with 0.5% (wt/vol) bovine serum albumin (BSA) in PBS. Cells were incubated with 381.7 ng/ml mouse anti-HAdV hexon protein antibody (Mab8052; Sigma-Aldrich, St. Louis, MO, USA) and subsequently stained using 2 μg/ml goat anti-mouse-Alexa Fluor 594 (catalog number A21203 or A32742; Thermo Fisher Scientific, Waltham, MA, USA). Plates were imaged on either an IXM-XL or an IXM-C automated high-throughput fluorescence microscope (Molecular Devices, San Jose, CA, USA) using a 4× objective in wide-field mode. Hoechst staining was recorded in the 4′,6-diamidino-2-phenylindole (DAPI) channel, the fluorescein isothiocyanate (FITC)/GFP channel was acquired for viral GFP, and the tetramethyl rhodamine isothiocyanate (TRITC)/Texas Red channel was acquired for hexon immunofluorescence staining.
(§2) The infection phenotype for each well was quantified using Plaque2.0 ([101]). The number of plaques was determined based on the infection signal (viral GFP or hexon immunofluorescence staining). Nuclei stained with Hoechst were segmented by using CellProfiler ([178]). Infected nuclei were classified based on the median infection signal per nucleus in CellProfiler. Data were plotted, and the EC50 (infected and treated cells), the TC50 (noninfected, treated cells), as well as the corresponding standard errors (SE) were determined using curve fitting in GraphPad (version 8.1.2; GraphPad Software, Inc.) using three-parameter inhibitor concentration-versus-response nonlinear regression. The mean TI50 was calculated as the […] ratio of the means. The TI50 SE was calculated by error propagation.

[2] = test system: HAdV-D37
Experimental: as §1, §2

[3] = test system: rec700 (HAdV-C5/2)
Experimental: as §1, §2

[4] = test system: HAdV-B14a
Experimental: as §1, §2

[5] = test system: dl712 (HAdV-C5/2-dADP)
Experimental: as §1, §2

[6] = test system: HAdV-B16
Experimental: as §1, §2

[7] = test system: HAdV-D8
Experimental: as §1, §2

[8] = test system: HAdV-C2-dE3B-GFP-dADP; details: for EC50: Human adenovirus sp., plaque numbers
Experimental: as §1, §2

[9] = test system: HAdV-B35-pIX-FS2A-GFP
Experimental: as §1, §2

[10] = test system: HAdV-B14
Experimental: as §1, §2

[11] = test system: HAdV-B3-pIX-FS2A-GFP
Experimental: as §1, §2

[12] = test system: HAdV-B21a
Experimental: as §1, §2

[13] = test system: HAdV-C5
Experimental: as §1, §2

[14] = test system: HAdV-B34
Experimental: as §1, §2

[15] = test system: HAdV-C2
Experimental: as §1, §2

[16] = test system: HAdV-B7; details: for TI50 (TC50/IC50): HAdV-B7 in A549, 4 dpi, Hexon
Experimental: as §1, §2

In the case of `Cc1c(O)cccc1C(=O)N[C@@H](CSc1ccccc1)[C@H](O)CN1C[C@H]2CCCC[C@H]2C[C@H]1C(=O)NC(C)(C)C` [Nelfinavir, Nelfinavir mesylate], the “TI50 (TC50/IC50)” value ([1]; HAdV-D30 in A549, 5 dpi, Hexon) is reported as 3.18, the EC50 ([1]; Human adenovirus sp., HAdV-D30 in A549, fixation 5 dpi, read-out Hexon, plaque numbers) is reported as 4.2 µM and the “TI50 (TC50/IC50)” value ([2]; HAdV-D37 in A549, 5 dpi, Hexon) is reported as 1.29. For the same compound, the EC50 ([2]; Human adenovirus sp., HAdV-D37 in A549, fixation 5 dpi, read-out Hexon, plaque numbers) was 16.7 µM, the EC50 ([3]; Human adenovirus sp., A549) was 0.07 µM and the “TI50 (TC50/IC50)” value ([3]; rec700 (HAdV-C5/2) in A549, 4 dpi, Hexon) was 177.41. The “TI50 (TC50/IC50)” value ([4]; HAdV-B14a in A549, 3 dpi, Hexon) was 38.22, the EC50 ([4]; Human adenovirus sp., HAdV-B14a in A549, fixation 3 dpi, read-out Hexon, plaque numbers) was 0.4 µM and the EC50 ([5]; Human adenovirus sp., A549) was 6.87 µM. The “TI50 (TC50/IC50)” value ([5]; dl712 (HAdV-C5/2-dADP) in A549, 5 dpi, Hexon) was 2.18, the “TI50 (TC50/IC50)” value ([6]; HAdV-B16 in A549, 4 dpi, Hexon) was 1.66 and the EC50 ([6]; Human adenovirus sp., HAdV-B16 in A549, fixation 4 dpi, read-out Hexon, plaque numbers) was 12.3 µM. For the same compound, the “TI50 (TC50/IC50)” value ([7]; HAdV-D8 in A549, 5 dpi, Hexon) was 2.36, the EC50 ([7]; Human adenovirus sp., HAdV-D8 in A549, fixation 5 dpi, read-out Hexon, plaque numbers) was 9.09 µM and the “TI50 (TC50/IC50)” value ([8]; HAdV-C2-dE3B-GFP-dADP in A549, 4 dpi, GFP) was 2.11. For the same compound, the “TI50 (TC50/IC50)” value ([8]; HAdV-C2-dE3B-GFP-dADP in A549, 4 dpi, GFP, listed as nelfinavir) was 2.1, the “TI50 (TC50/IC50)” value ([8]; HAdV-C2-dE3B-GFP-dADP in A549, 5 dpi, GFP) was 6.73 and the “TI50 (TC50/IC50)” value ([8]; HAdV-C2-dE3B-GFP-dADP in A549, 5 dpi, Hexon) was 5.20. It also gave an EC50 ([8]; A549, HAdV-C2-dE3B-GFP-dADP in A549, fixation 4 dpi (96 hpi), read-out GFP) of 5.82 µM, an EC50 ([8]; A549, HAdV-C2-dE3B-GFP-dADP in A549, fixation 5 dpi, read-out GFP) of 2.23 µM and an EC50 ([8]; A549, HAdV-C2-dE3B-GFP-dADP in A549, fixation 5 dpi, read-out Hexon) of 2.88 µM. The “TI50 (TC50/IC50)” value ([9]; HAdV-B35-pIX-FS2A-GFP in A549, 4 dpi, Hexon) was 6.13, the EC50 ([9]; Human adenovirus sp., A549) was 2.49 µM and the “TI50 (TC50/IC50)” value ([10]; HAdV-B14 in A549, 3 dpi, Hexon) was 14.22. For the same compound, the EC50 ([10]; Human adenovirus sp., HAdV-B14 in A549, fixation 3 dpi, read-out Hexon, plaque numbers) was 0.84 µM, the “TI50 (TC50/IC50)” value ([11]; HAdV-B3-pIX-FS2A-GFP in A549, 3 dpi, Hexon) was 1.50 and the EC50 ([11]; Human adenovirus sp., A549) was 10.2 µM. The “TI50 (TC50/IC50)” value ([12]; HAdV-B21a in A549, 4 dpi, Hexon) was 1.27, the EC50 ([12]; Human adenovirus sp., HAdV-B21a in A549, fixation 4 dpi, read-out Hexon, plaque numbers) was 16 µM and the “TI50 (TC50/IC50)” value ([13]; HAdV-C5 in A549, 3 dpi, VI) was 21.01. For the same compound, the EC50 ([13]; Human adenovirus sp., HAdV-C5 in A549, fixation 3 dpi, read-out VI, plaque numbers) was 0.57 µM, the “TI50 (TC50/IC50)” value ([14]; HAdV-B34 in A549, 4 dpi, Hexon) was 6.40 and the EC50 ([14]; Human adenovirus sp., HAdV-B34 in A549, fixation 4 dpi, read-out Hexon, plaque numbers) was 3.18 µM. For the same compound, the “TI50 (TC50/IC50)” value ([15]; HAdV-C2 in A549, 4 dpi, Hexon) was 71.09, the EC50 ([15]; Human adenovirus sp., HAdV-C2 in A549, fixation 4 dpi, read-out Hexon, plaque numbers) was 0.24 µM and the “TI50 (TC50/IC50)” value [16] was 0.75. For the same compound, the “TI50 (TC50/IC50)” value ([16]; listed as nelfinavir) was < 1 and the EC50 ([16]; Human adenovirus sp., HAdV-B7 in A549, fixation 4 dpi, read-out Hexon, plaque numbers) was 16.9 µM.
